System: KCNQ channels
Assay: Thallium flux assay for KCNQ channel openers
Type: cell-based
Conditions: HEK-293 cells stably transfected with a KCNQ family member; for Min conc. response: minimal active concentration: lowest concentration giving signal >= 4 SD of negative controls; for EC50: thallium flux, 10 point concentration series
Protocol: Thallium Flux Assay for KCNQ Channel Openers.
The thallium assay is a modification of that published by Weaver and is referenced in its entirety (Weaver, C. D. WO 02/31508, 2002).
Approximately 20,000 cells/well of an HEK-293 cell line stably transfected with one of the members of the KCNQ family were plated into clear-bottom, black-walled, poly-D-lysine coated, 384 well assay plates in 20 μl/well of low chloride plating medium. Low chloride plating medium was composed of the following: sodium gluconate, 109 mM; potassium gluconate, 5.4 mM; hemi-calcium gluconate, 3.6 mM; magnesium sulfate, 0.8 mM; sodium bicarbonate, 26.2 mM; sodium phosphate monobasic, 1.2 mM; glutamine, 2 mM; glucose, 5 mM; 4-(2-hydroxyethyl)-1-piperazineethanesulfonic acid (HEPES) (pH 7.3) 10 mM, MEM vitamin solution (10× concentration of vitamins, Gibco/LifeTechnologies 11120-052) and MEM amino acid solution (1× concentration of amino acids, Gibco/LifeTechnologies 11130-051).
Following overnight incubation in a 5% CO2 incubator at 37° C., the cells in the plates were loaded with 20 μl/well of a dye loading solution containing the commercially available thallium-sensitive fluorescent dye BTC-AM, the acetomethoxy ester of BTC (see U.S. Pat. No. 5,501,980) (2 μM) and pluronic acid F-127 (Molecular Probes P 6867) (0.02% w/v) in chloride free assay buffer. Chloride free assay buffer was composed of the following: sodium gluconate, 140 mM; potassium gluconate, 2.5 mM; hemi-calcium gluconate, 6 mM; hemi-magnesium gluconate, 2 mM; glucose, 5 mM; HEPES (pH 7.3), 10 mM.
Following incubation in the dye loading solution for from 45-90 min at room temperature, the dye loading solution was removed by aspiration and replaced with 40 μl/well of chloride free assay buffer.
Prior to addition to cell plates, test compound and standard compounds were dissolved in DMSO to 3 mM concentration. Compounds were then diluted from the 3 mM stock to 100-fold over the final assay concentration in DMSO. Finally, compounds in DMSO were diluted from 100-fold over the final assay concentration to 5-fold over the final assay concentration in chloride free assay buffer.
Ten μl/well of compounds at 5-fold over the final assay concentration were then added to the cell plates. This represents a 1:5 dilution, yielding the final test concentration. The wells used for test compounds were A1-P20. Wells A21-P22 contained a standard opener and a maximally efficacious concentration (positive control). Wells A23-P24 contained chloride free assay buffer containing 1% DMSO (negative control).
Following addition of test compounds, the plates were loaded onto the Molecular Devices FLIPR. The 488 nm line of the argon laser was used to excite the BTC and the emission filter was a 540(+/−30) nm. Images were collected at 1 Hz. Ten seconds of baseline were collected and then the FLIPR was used to add 13 μl/well of a stimulus buffer composed of 7.5 mM Tl2SO4 in chloride free assay buffer. Images were collected for an additional 60 seconds.
For data analysis, the amplitude of the average of the negative controls was subtracted from all wells. The amplitudes of the test compounds were then compared to the value of four standard deviations of the negative control wells. The lowest concentration of a test compound sufficient to generate a signal amplitude greater than or equal to four standard deviations from the amplitude of the negative controls was defined as the minimal active concentration.
For generating EC50 values, compounds were serially diluted in 1:3 volume increments to produce a 10 point concentration series. EC50 values were calculated by fitting the resulting amplitudes to a single-site logistic equation. EC50 was defined as the concentration of test compound required to yield 50% of the maximal response. Maximal response (Maximal opening) was the largest signal amplitude divided by the negative control amplitude generated by any concentration of a test compound. […]

| EC50 [nM] | SMILES | Min conc. response [µM] |
| --- | --- | --- |
| 1000 to 20000 | CC(NC(=O)c1sc(CCNC2CCCC2)nc1C(F)(F)F)c1cccc(OC(F)(F)F)c1 (stereo not drawn) [Example 36, 2-[2-(cyclopentylamino)ethyl]-N-[1-[3-(trifluoromethoxy)phenyl]ethyl]-4-(trifluoromethyl)-5-thiazolecarboxamide] | 30 |
| 1000 to 20000 | C[C@H](NC(=O)c1sc(CCNC2CCCC2)nc1C(F)(F)F)c1cccc(-c2cccnc2)c1 [Example 37] | 30 |
| 1000 to 20000 | COCCN(CCOC)CCc1nc(C(F)(F)F)c(C(=O)NC(C)c2cccc(OC(F)(F)F)c2)s1 (stereo not drawn) [Example 38] | 3 |
| 1000 to 20000 | COCCN(CCOC)CCc1nc(C(F)(F)F)c(C(=O)NC(C)c2cccc(C(F)(F)F)c2)s1 (stereo not drawn) [Example 39] | 3 |
| 50 to 1000 | COCCN(CCOC)CCc1nc(C(F)(F)F)c(C(=O)N[C@@H](C)c2cccc(-c3cccnc3)c2)s1 [Example 40] | 30 |
| 1000 to 20000 | CC(NC(=O)c1sc(C(O)CN2CCCCC2)nc1C(F)(F)F)c1cccc(OC(F)(F)F)c1 (stereo not drawn) [Example 41, 2-[1-hydroxy-2-(1-piperidinyl)ethyl]-N-[1-[3-(trifluoromethoxy)phenyl]ethyl]-4-(trifluoromethyl)-5-thiazolecarboxamide] | 30 |
| 50 to 1000 | CC(NC(=O)c1sc(C(O)CN2CCCC2)nc1C(F)(F)F)c1cccc(C(F)(F)F)c1 (stereo not drawn) [Example 42, 2-[1-hydroxy-2-(1-pyrrolidinyl)ethyl]-N-[1-[3-(trifluoromethyl)phenyl]ethyl]-4-(trifluoromethyl)-5-thiazolecarboxamide] | 3 |
| 50 to 1000 | CC(NC(=O)c1sc(C(O)CN(C)Cc2ccco2)nc1C(F)(F)F)c1cccc(C(F)(F)F)c1 (stereo not drawn) [Example 43, 2-[1-hydroxy-[2-(2-furanylmethyl)methylamino]ethyl]-N-[1-[3-(trifluoromethyl)phenyl]ethyl]-4-(trifluoromethyl)-5-thiazolecarboxamide] | 3 |
| 50 to 1000 | CCCN(CC1CC1)CC(O)c1nc(C(F)(F)F)c(C(=O)NC(C)c2cccc(OC(F)(F)F)c2)s1 (stereo not drawn) [Example 44] | 3 |
|  | C[C@H](NC(=O)c1sc(CCN2CCOCC2)nc1C(F)(F)F)c1cccc(N2CCOCC2)c1 [Example 45, 2-[2-(4-morpholinyl)ethyl]-N-[(1S)-1-[3-(4-morpholinyl)phenyl]ethyl]-4-(trifluoromethyl)-5-thiazolecarboxamide] | 3 |
|  | CC(NC(=O)c1sc(CCN2CCSCC2)nc1C(F)(F)F)c1cccc(N(C)C)c1 (stereo not drawn) [Example 46, N-[1-[3-(dimethylamino)phenyl]ethyl]-2-[2-(4-thiomorpholinyl)ethyl]-4-(trifluoromethyl)-5-thiazolecarboxamide] | 3 |
|  | CC(NC(=O)c1sc(CCN(C)CCN(C)C)nc1C(F)(F)F)c1cccc(N(C)C)c1 (stereo not drawn) [Example 47, 2-[2-[[2-(dimethylamino)ethyl]methylamino]ethyl]-N-[1-[3-(dimethylamino)phenyl]ethyl]-4-(trifluoromethyl)-5-thiazolecarboxamide] | 0.3 |
|  | C[C@H](NC(=O)c1sc(CCN2CCN(C)CC2)nc1C(F)(F)F)c1cccc(N2CCOCC2)c1 [Example 48, 2-[2-(4-methyl-1-piperazinyl)ethyl]-N-[(1S)-1-[3-(4-morpholinyl)phenyl]ethyl]-4-(trifluoromethyl)-5-thiazolecarboxamide] | 3 |
|  | CCN(CC)CC(O)c1nc(C(F)(F)F)c(C(=O)N[C@@H](C)c2cccc(N3CCOCC3)c2)s1 (stereo partly drawn) [Example 49, 2-[2-(diethylamino)-1-hydroxyethyl]-N-[(1S)-1-[3-(4-morpholinyl)phenyl]ethyl]-4-(trifluoromethyl)-5-thiazolecarboxamide] | 30 |
|  | CCN(CC)CC(O)c1nc(C(F)(F)F)c(C(=O)N[C@@H](C)c2cccc(-c3cccnc3)c2)s1 (stereo partly drawn) [Example 50, 2-[2-(diethylamino)-1-hydroxyethyl]-N-[(1S)-1-[3-(3-pyridinyl)phenyl]ethyl]-4-(trifluoromethyl)-5-thiazolecarboxamide] | 0.3 |
|  | CC(NC(=O)c1sc(C(O)CN2CCOCC2)nc1C(F)(F)F)c1cccc(OC(F)(F)F)c1 (stereo not drawn) [Example 51, 2-[1-hydroxy-2-(4-morpholinyl)ethyl]-N-[1-[3-(trifluoromethoxy)phenyl]ethyl]-4-(trifluoromethyl)-5-thiazolecarboxamide] | 0.3 |
|  | CC(NC(=O)c1sc(C(O)CN2CCOCC2)nc1C(F)(F)F)c1cccc(C(F)(F)F)c1 (stereo not drawn) [Example 52, 2-[1-hydroxy-2-(4-morpholinyl)ethyl]-4-(trifluoromethyl)-N-[1-[3-(trifluoromethyl)phenyl]ethyl]-5-thiazolecarboxamide] | 10 |
|  | CC(NC(=O)c1sc(C(O)CN2CCN(C)CC2)nc1C(F)(F)F)c1cccc(C(F)(F)F)c1 (stereo not drawn) [Example 53, 2-[1-hydroxy-2-(4-methyl-1-piperazinyl)ethyl]-4-(trifluoromethyl)-N-[1-[3-(trifluoromethyl)phenyl]ethyl]-5-thiazolecarboxamide] | 30 |
|  | C[C@H](NC(=O)c1sc(C(O)CN2CCN(C)CC2)nc1C(F)(F)F)c1cccc(N2CCOCC2)c1 (stereo partly drawn) [Example 54, 2-[1-hydroxy-2-(4-methyl-1-piperazinyl)ethyl]-N-[(1S)-1-[3-(4-morpholinyl)phenyl]ethyl]-4-(trifluoromethyl)-5-thiazolecarboxamide] | 0.3 |
|  | C[C@H](NC(=O)c1sc(C(O)CN2CCN(C)CC2)nc1C(F)(F)F)c1cccc(-c2cccnc2)c1 (stereo partly drawn) [Example 55, 2-[1-hydroxy-2-(4-methyl-1-piperazinyl)ethyl]-N-[(1S)-1-[3-(3-pyridinyl)phenyl]ethyl]-4-(trifluoromethyl)-5-thiazolecarboxamide] | 0.3 |
|  | CC(NC(=O)c1sc(C(O)CN2CCCCC2)nc1C(F)(F)F)c1cccc(C(F)(F)F)c1 (stereo not drawn) [Example 56, 2-[1-hydroxy-2-(1-piperidinyl)ethyl]-4-(trifluoromethyl)-N-[1-[3-(trifluoromethyl)phenyl]ethyl]-5-thiazolecarboxamide] | 30 |
|  | CC(NC(=O)c1sc(C(O)CN2CCCC2)nc1C(F)(F)F)c1cccc(OC(F)(F)F)c1 (stereo not drawn) [Example 57, 2-[1-hydroxy-2-(1-pyrrolidinyl)ethyl]-N-[1-[3-(trifluoromethoxy)phenyl]ethyl]-4-(trifluoromethyl)-5-thiazolecarboxamide] | 3 |
|  | CC(NC(=O)c1sc(C(O)CN2CCCC2)nc1C(F)(F)F)c1cccc(N(C)C)c1 (stereo not drawn) [Example 58, N-[1-[3-(dimethylamino)phenyl]ethyl]-2-[1-hydroxy-2-(1-pyrrolidinyl)ethyl]-4-(trifluoromethyl)-5-thiazolecarboxamide] | 0.3 |
|  | C[C@H](NC(=O)c1sc(C(O)CN2CCCC2)nc1C(F)(F)F)c1cccc(N2CCOCC2)c1 (stereo partly drawn) [Example 59, 2-[1-hydroxy-2-(1-pyrrolidinyl)ethyl]-N-[(1S)-1-[3-(4-morpholinyl)phenyl]ethyl]-4-(trifluoromethyl)-5-thiazolecarboxamide] | 30 |

Source: patent US6933308B2 (Bristol-Myers Squibb Company, priority 2002, dated 2005)
